Patent US20110287933A1, “Herbicidal composition for tolerant or resistant oilseed rape crops” (BAYER CROPSCIENCE AG, priority 2010, published 2011)

Legend:
Format in all cases: in vivo
[1] = test system: oilseed rape (GA-tolerant); assay: Greenhouse trial, crop plant compatibility in oilseed rape (GA-tolerant); settings: 2-4 oilseed rape-leaf stage
Description: The trials were carried out under greenhouse conditions (test pots, diameter 8 cm, spray application using 300 l of water/hectare, 2 repetitions, 6 to 8 plants per pot).
Scoring was by visual comparison of the treated with the untreated controls (0-100% scale, 14-19 days after the application) (see details in the respective tables).

Lolium multiflorum = assay: Greenhouse trial, post-emergence herbicidal efficacy against Lolium multiflorum; settings: scoring 14 days after application, g of ai/ha: A1.1 100, B1.1 5, C10 5, C11 15, combinations at the same rates
Description: (§1) The trials were carried out under greenhouse conditions (test pots, diameter 8 cm, spray application using 300 l of water/hectare, 2 repetitions, 6 to 8 plants per pot). Application was by post-emergence treatment; the species of the harmful plants and their stage of growth at the time of treatment are, indicated in the individual results tables. The application rates of the herbicidally active compounds used on their own or in combinations are likewise listed in the individual results tables.
(§2) Scoring was by visual comparison of the treated with the untreated controls (0-100% scale, 14-19 days after the application) (see details in the respective tables). The results (means for all plants per pot and means of two repetitions per pot and treatment) are lised in Tables 4 to 6 below.
(§3) 4.2 Abbreviations Used in Tables 4 to 6 • application rate g/ai=application rate in grams of active compound per hectare • ai=active ingredient (of an active compound content of 100%) • GA=glufosinate-ammonium • GA-tolerant=oilseed rape which is tolerant to GA (GMO) • E^C=expected value according to Colby, (E^C=A+B−A×B/100)=for ternary combinations: (A+B)+C−(A+B)×C/100 • E^A=expected value according to the addition method (E^A=A+B) • A=difference (%) between observed value−%−vs. expected value (%) (observed value minus expected value) • examination:—observed values for (A), (B) and (A)+(B) in % • scoring:—observed value (%) greater >than E^C/E^A: ->synergism (+Δ) • observed value (%) equal to =E^c/E^A->additive effect (+−0Δ) • observed value (%) smaller <than E^A/E^c->antagonism (−Δ)

Matricaria chamomilla = assay: Greenhouse trial, post-emergence herbicidal efficacy against Matricaria chamomilla; settings: scoring 19 days after application, g of ai/ha: A1.1 100, B1.1 5, C12 50, combinations at the same rates
Description: as §1, §2, §3

Viola arvensis = assay: Greenhouse trial, post-emergence herbicidal efficacy against Viola arvensis; settings: scoring 14 days after application, g of ai/ha: A1.1 100, B1.1 5, C1 25, C2 100, C3 12.5, C4 2.5, C5 50, C6 125, C7 250, C8 250, C9 5, combinations at the same rates
Description: as §1
Scoring was by visual comparison of the treated with the untreated controls (0-100% scale, 14-19 days after the application) (see details in the respective tables). The results (means for all plants per pot and means of two repetitions per pot and treatment) are lised in Tables 4 to 6 below. […]

[2] = Table 4, post-emergence, scoring 14 days after application, g of ai/ha: A1.1 100, B1.1 5, C1 25, C2 100, C3 12.5, C4 2.5, C5 50, C6 125, C7 250, C8 250, C9 5, combinations at the same rates, (75)* = selective only in IMI × GA tolerant crop plants
[3] = Table 5, post-emergence, scoring 14 days after application, g of ai/ha: A1.1 100, B1.1 5, C10 5, C11 15, combinations at the same rates
[4] = Table 6, post-emergence, scoring 19 days after application, g of ai/ha: A1.1 100, B1.1 5, C12 50, combinations at the same rates

| Structure (SMILES) | Damage to crop plants (%) oilseed rape (GA-tolerant) (≦15-20% acceptable) [1, 2] | Herbicidal efficacy % Lolium multiflorum (Lolium multiflorum) | other results |
| --- | --- | --- | --- |
| CP(=O)(O)CCC(N)C(=O)O (centres unmarked) [A1.1, glufosinate-ammonium] | 10% | 20% | Damage to crop plants (%) oilseed rape (GA-tolerant) (≦15-20% acceptable) [1, 3]: 10%; Damage to crop plants (%) oilseed rape (GA-tolerant) (≦15-20% acceptable) [1, 4]: 10%; Herbicidal efficacy % Matricaria chamomilla (Matricaria chamomilla): 95% |
| COC(=O)c1nc(-c2ccc(Cl)c(OC)c2F)cc(N)c1Cl [B1.1, methyl 4-amino-3-chloro-6-(4-chloro-2-fluoro-3-methoxyphenyl)pyridine-2-carboxylate] | – | 0% | Herbicidal efficacy % Matricaria chamomilla (Matricaria chamomilla): 40% |
| O=C(O)c1nc(Cl)ccc1Cl [C1, clopyralid] | 0% | – | – |
| CCOC(=O)[C@@H](C)Oc1ccc(Oc2nc3ccc(Cl)cc3o2)cc1 [C3, fenoxaprop-P-ethyl] | 15% | – | Herbicidal efficacy % Viola arvensis (Viola arvensis): 0% |
| C[C@@H](Oc1ccc(Oc2ncc(C(F)(F)F)cc2Cl)cc1)C(=O)O [C4, haloxyfop-p] | – | – | Herbicidal efficacy % Viola arvensis (Viola arvensis): 0% |
| Cc1cccc(C)c1N(Cn1cccn1)C(=O)CCl [C5, metazachlor] | 0% | – | – |
| CCCCCCCCSC(=O)Oc1cc(Cl)nnc1-c1ccccc1 [C7, pyridate] | 0% | – | – |
| CCCN(CCC)c1c([N+](=O)[O-])cc(C(F)(F)F)cc1[N+](=O)[O-] [C8, trifluralin] | 0% | – | – |
| COCc1cnc(C2=NC(C)(C(C)C)C(=O)N2)c(C(=O)O)c1 (centres unmarked) [C9, imazamox] | (75)* % | – | – |
| CCSC(C)CC1CC(=O)C(/C(CC)=N/OC/C=C/Cl)=C(O)C1 (centres unmarked) [C10, clethodim] | – | 50% | Damage to crop plants (%) oilseed rape (GA-tolerant) (≦15-20% acceptable) [1, 3]: 0% |
| CCCC(=NOCC)C1=C(O)CC(C2CCCSC2)CC1=O (centres unmarked) [C11, cycloxydim] | – | 70% | – |
| CC1(C)CON(Cc2ccccc2Cl)C1=O [C12, Clomazone] | – | – | Damage to crop plants (%) oilseed rape (GA-tolerant) (≦15-20% acceptable) [1, 4]: 15%; Herbicidal efficacy % Matricaria chamomilla (Matricaria chamomilla): 0% |
